Results reported in article PMC5281649 (European Journal of Nuclear Medicine and Molecular Imaging, 2016).
Like-named read-outs stand apart in the source and are kept apart here.

Biological target: T1, brain MAO-B enzyme (Homo sapiens, UniProt P27338)
T1 sequence (P27338 1-520): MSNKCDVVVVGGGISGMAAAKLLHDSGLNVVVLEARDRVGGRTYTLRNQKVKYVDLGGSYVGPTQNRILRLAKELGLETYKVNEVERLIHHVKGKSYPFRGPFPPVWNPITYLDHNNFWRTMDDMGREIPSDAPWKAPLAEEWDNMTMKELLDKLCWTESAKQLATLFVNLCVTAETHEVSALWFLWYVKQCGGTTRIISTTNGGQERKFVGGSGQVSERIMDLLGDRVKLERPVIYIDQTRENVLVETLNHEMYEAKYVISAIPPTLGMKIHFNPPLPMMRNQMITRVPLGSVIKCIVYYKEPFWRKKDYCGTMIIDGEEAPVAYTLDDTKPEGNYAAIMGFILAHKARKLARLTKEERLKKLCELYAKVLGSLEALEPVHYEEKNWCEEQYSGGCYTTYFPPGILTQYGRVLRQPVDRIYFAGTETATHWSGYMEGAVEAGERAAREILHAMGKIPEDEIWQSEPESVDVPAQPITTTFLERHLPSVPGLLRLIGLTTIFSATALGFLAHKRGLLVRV
Experiment: PET with [11C]-L-deprenyl-D2: brain MAO-B inhibition after repeated oral sembragiline
Format: in vivo
Conditions: mean (range); for receptor occupancy at 0.2 mg / receptor occupancy at 5 mg / receptor occupancy at 1 mg / receptor occupancy at 0.1 mg: human, read-out: Occ (MAO-B occupancy); for receptor occupancy at 0.2 mg: 168 h; for receptor occupancy at 5 mg: 216 h; for receptor occupancy at 1 mg: 336 h; for receptor occupancy at 0.1 mg: 360 h, 5 mg loading day 1 then 0.1 mg q.d. days 2–15
Description: The first dose was administered at the study centre under the supervision of study personnel. On subsequent study days, treatment compliance was assured by intake logs and tablet counting.
At baseline, each subject underwent a PET scan using [^11C]-L-deprenyl-D2 to measure MAO-B enzyme activity in the brain prior to their first dose of allocated medication. The second scan was performed at trough concentrations at steady state prior to the last drug administration. Before each scan, a cannula was inserted into a radial artery and another into an antecubital vein. A sterile phosphate buffer (pH = 7.4) containing radioligand was injected as a bolus over several seconds into the cubital vein.
A transmission scan was performed using three rotating ^68Ge rod sources. [^11C]-L-Deprenyl-D2 was injected intravenously as a bolus, and emission data were acquired over 63 min using the ECAT EXACT high-resolution system (Siemens Medical Solutions, Malvern, PA, USA). The injected radioactivity was targeted to approximately 300 MBq. The injected mass of deprenyl was to be ≤100 μg, and ≥50–100-fold lower than the typical administered dose of 5–10 mg deprenyl to patients with Parkinson’s disease. The framing was as follows: 9 frames x 10 s, 2 frames x 15 s, 3 frames x 20 s, 4 frames x 30 s, 4 frames x 60 s, 4 frames x 180 s, 7 frames x 360 s. Images were reconstructed using the standard filtered back-projection, with a 2-mm Hanning filter, a zoom factor of 2.17, and a 128 × 128 matrix, and were corrected for attenuation and scatter. A summation PET image was created for each subject and PET session by averaging across all frames. Time–activity curves were then extracted from selected ROIs.
Arterial blood samples were used for measurement of radioactivity in whole blood and plasma, as well as to determine the parent fraction of the radioligand, using a reversed-phase high-performance liquid chromatography method (Karolinska University Hospital, Solna, Stockholm, Sweden). A catheter was inserted in the radial artery, and arterial blood was collected continuously for 10 min using an automated blood sampling system at a speed of 5 mL/min. Discrete blood samples were drawn approximately 10, 15, 20, 30, 45 and 60 min after each injection of [^11C]-L-deprenyl-D2.
Time–activity data were analysed as previously described. Briefly, [^11C]-L-deprenyl-D2 was quantified by the two-tissue compartment model with three rate constants (K 1, k 2, k 3) using the PMOD 3.3 software package (PMOD Group, Zurich, Switzerland), where the tissue compartments represent the free plus non-specifically bound and specifically bound radiotracer. The outcome measure λk 3 was calculated as (K 1/k 2)*k 3, using a non-linear approach, and was used as an estimate for specific binding to MAO-B that was independent of perfusion. […] This is because λk3 is independent of perfusion and has better reproducibility than k3 alone.

[1] = AD patients, 5 mg q.d. for 6–9 days, parietal cortex, N = 2
[2] = AD patients, 5 mg q.d. for 6–9 days, striatum, N = 2
[3] = AD patients, 5 mg q.d. for 6–9 days, whole brain, N = 2

## CC(=O)N[C@H]1CC(=O)N(c2ccc(OCc3cccc(F)c3)cc2)C1 [sembragiline]
[1]
  [11C]-L-deprenyl-D2 λk3 post-dose: 0.04 (0.03–0.04)
  receptor occupancy at 5 mg: 78.1%
[2]
  [11C]-L-deprenyl-D2 λk3 post-dose: 0.05 (0.04–0.05)
  receptor occupancy at 5 mg: 84.8%
[3]
  [11C]-L-deprenyl-D2 λk3 post-dose: 0.04 (0.04–0.05)
  receptor occupancy at 5 mg: 76.3%
EC subjects, 1 mg q.d. for 14 days, frontal cortex, N = 3
  [11C]-L-deprenyl-D2 λk3 post-dose: 0.04 (0.04–0.05)
EC subjects, 1 mg q.d. for 14 days, hippocampus, N = 3
  [11C]-L-deprenyl-D2 λk3 post-dose: 0.04 (0.03–0.05)
EC subjects, 1 mg q.d. for 14 days, parietal cortex, N = 3
  [11C]-L-deprenyl-D2 λk3 post-dose: 0.04 (0.04–0.05)
EC subjects, 1 mg q.d. for 14 days, striatum, N = 3
  [11C]-L-deprenyl-D2 λk3 post-dose: 0.05 (0.04–0.06)
EC subjects, 1 mg q.d. for 14 days, thalamus, N = 3
  [11C]-L-deprenyl-D2 λk3 post-dose: 0.05 (0.04–0.05)
EC subjects, 1 mg q.d. for 14 days, whole brain, N = 3
  [11C]-L-deprenyl-D2 λk3 post-dose: 0.05 (0.04–0.05)
EC subjects, 5 mg loading day 1 then 0.2 mg q.d. days 2–7, frontal cortex, N = 3
  [11C]-L-deprenyl-D2 λk3 post-dose: 0.07 (0.06–0.09)
EC subjects, 5 mg loading day 1 then 0.2 mg q.d. days 2–7, hippocampus, N = 3
  [11C]-L-deprenyl-D2 λk3 post-dose: 0.11 (0.09–0.13)
EC subjects, 5 mg loading day 1 then 0.2 mg q.d. days 2–7, parietal cortex, N = 3
  [11C]-L-deprenyl-D2 λk3 post-dose: 0.07 (0.06–0.09)
EC subjects, 5 mg loading day 1 then 0.2 mg q.d. days 2–7, striatum, N = 3
  [11C]-L-deprenyl-D2 λk3 post-dose: 0.12 (0.09–0.14)
EC subjects, 5 mg loading day 1 then 0.2 mg q.d. days 2–7, thalamus, N = 3
  [11C]-L-deprenyl-D2 λk3 post-dose: 0.12 (0.09–0.13)
EC subjects, 5 mg loading day 1 then 0.2 mg q.d. days 2–7, whole brain, N = 3
  [11C]-L-deprenyl-D2 λk3 post-dose: 0.08 (0.07–0.10)
AD patients, 5 mg loading day 1 then 0.2 mg q.d. days 2–7, frontal cortex, N = 3
  receptor occupancy at 0.2 mg: 70.2%
AD patients, 5 mg loading day 1 then 0.2 mg q.d. days 2–7, hippocampus, N = 3
  receptor occupancy at 0.2 mg: 76.1%
AD patients, 5 mg loading day 1 then 0.2 mg q.d. days 2–7, parietal cortex, N = 3
  receptor occupancy at 0.2 mg: 68.7%
AD patients, 5 mg loading day 1 then 0.2 mg q.d. days 2–7, striatum, N = 3
  receptor occupancy at 0.2 mg: 77.1%
AD patients, 5 mg loading day 1 then 0.2 mg q.d. days 2–7, thalamus, N = 3
  receptor occupancy at 0.2 mg: 76.8%
AD patients, 5 mg loading day 1 then 0.2 mg q.d. days 2–7, whole brain, N = 3
  receptor occupancy at 0.2 mg: 68.9%
AD patients, 5 mg q.d. for 6–9 days, frontal cortex, N = 2
  receptor occupancy at 5 mg: 77.8%
AD patients, 5 mg q.d. for 6–9 days, hippocampus, N = 2
  receptor occupancy at 5 mg: 83.3%
AD patients, 5 mg q.d. for 6–9 days, thalamus, N = 2
  receptor occupancy at 5 mg: 86.3%
AD patients, 1 mg q.d. for 14 days, frontal cortex, N = 2
  receptor occupancy at 1 mg: 79.7%
AD patients, 1 mg q.d. for 14 days, hippocampus, N = 2
  receptor occupancy at 1 mg: 79.2%
AD patients, 1 mg q.d. for 14 days, parietal cortex, N = 2
  receptor occupancy at 1 mg: 78%
AD patients, 1 mg q.d. for 14 days, striatum, N = 2
  receptor occupancy at 1 mg: 85%
AD patients, 1 mg q.d. for 14 days, thalamus, N = 2
  receptor occupancy at 1 mg: 86%
AD patients, 1 mg q.d. for 14 days, whole brain, N = 2
  receptor occupancy at 1 mg: 75.5%
AD patients, frontal cortex, N = 2
  receptor occupancy at 0.1 mg: 56.9%
AD patients, hippocampus, N = 2
  receptor occupancy at 0.1 mg: 53.8%
AD patients, parietal cortex, N = 2
  receptor occupancy at 0.1 mg: 55.6%
AD patients, striatum, N = 2
  receptor occupancy at 0.1 mg: 59.9%
AD patients, thalamus, N = 2
  receptor occupancy at 0.1 mg: 60.4%
AD patients, whole brain, N = 2
  receptor occupancy at 0.1 mg: 55.2%
